Paper PMC2816240 (European Journal of Nuclear Medicine and Molecular Imaging, 2009)

Key:
male Wistar rats [1] = assay type: in vivo, rat; conditions: 20 h post-injection, n = 5 rats, vs PBS
male Wistar rats [2] = assay: Adverse effects of injection in rats; assay type: in vivo; conditions: peptide #6 0.2, 1 or 5 mg per rat i.v.

ENFVAFVDKCCAADDKEA CFAVEGPKLVVSTQTALA [peptide #6]
uptake of 111In-octreotide in the pancreas and other organs (male Wistar rats [1]; peptide #6 5 mg i.v.): unaffected
uptake of 111In-minigastrin and 111In-exendin in organs other than the kidneys (male Wistar rats [1]; peptide #6 i.v.): not affected
adverse effects of injection (male Wistar rats [2]): no adverse effects
